We go through 8 molecules from US10329532B2, “Method to direct differentiation of pluripotent stem cells into functional heart muscle” (GEORG-AUGUST-UNIVERSITÄT GÖTTINGEN STIFTUNG ÖFFENTLICHEN …, priority 2013, dated 2019).

Entries after “also recorded” stand apart in the source; their conditions may differ. Where two headings read alike, the source gives them in different places. A value given as a limit tells only on which side of the number the result lay.

Format in all cases: cell-based, human
The subject of assay [1] is bioengineered heart muscle (BHM). In words: Isometric contraction measurements of BHM (twitch tension/force of contraction) in organ baths. The settings on record: for twitch tension/force of contraction: growth factor added during cardiac maturation (FGF2: 10 ng/mL, TGFb1: 1 ng/mL). On the procedure:
Briefly, contraction experiments are performed in organ baths at 37° C. under constant bubbling with 5% CO2 and 95% O2 to maintain a physiological pH in Tyrode's solution containing (all in mM): 120 NaCl, 1 MgCl2, 0.2 CaCl2, 5.4 KCl, 22.6 NaHCO3, 4.2 NaH2PO4, 5.6 glucose and 0.56 ascorbate. Calcium is adjusted using a 0.2 M calcium chloride solution. All BHM are analysed at 3 Hz with 5 ms square pulses of 200 mA electrical current in order to pace at approximately the embryonic heart rate. Stimulation frequency is altered to confirm proper force-frequency response (Bowditch mechanism). BHM are mechanically stretched at intervals of 125 μm until the maximum twitch force is observed (force-length response; Frank-Starling mechanism).
Briefly, all contraction experiments are performed in organ baths at 37° C. and physiological pH in Tyrode's solution containing (all in mM): 120 NaCl, 1 MgCl2, 0.2 CaCl2, 5.4 KCl, 22.6 NaHCO3, 4.2 NaH2PO4, 5.6 glucose and 0.56 ascorbate. Calcium is adjusted using a 0.2 M calcium chloride solution. All BHM are analysed at 3 Hz with 5 ms square pulses of 200 mA electrical current in order to pace at approximately the embryonic heart rate. Stimulation frequency is altered to confirm proper force-frequency response (Bowditch mechanism). BHM are mechanically stretched at intervals of 125 μm until the maximum twitch force is observed at 2 mM calcium (Frank-Starling mechanism). Subsequently, BHM are subjected to different calcium concentrations (0.2, 0.4, 0.8, 1.2, 1.6, 2.0, 2.4 mM) and the twitch force is recorded. For isoprenaline experiments the calcium concentration is adjusted to 0.6 mM and subsequently the isoprenaline concentration is adjusted to 1 μM.
(§1) BHM formation was optimized on the HES2 line. HES2 hPSCs were suspended 1:1 in PSC-medium minus FGF-2 and HFF-conditioned medium (HFF-CM—harvested from 5 day confluent irradiated HFF cultures) with 10 ng/mL FGF2 and mixed with a collagen I hydrogel. For the HES3, and hIPS lines 10 μM Y-27632 was also added to the medium. The collagen I matrix was formulated with acid-soluabilized bovine collagen I (Devro) with an equi-volume of 2×DMEM (Gibco) and neutralized using 0.1 M sodium hydroxide. The hPSC/collagen I matrix was formulated to give a final collagen I concentration of 1 mg/ml and 5×10^5 hPSC per 170 μl. For the HES3 and hIPS lines 1×10^6 and 0.5×10^6 cells were used respectively per 170 μl. For each BHM, 170 μl of the hPSC/collagen I matrix was pipette into circular molds (i.d.=4 mm, o.d.=10 mm) fabricated using poly(dimethylsiloxane) (Sylgard, Dow Corning). After 10 min of culture in the incubator at 37° C. the collagen gelled and 1.25 ml of 1:1 human foreskin fibroblast-conditioned medium with 10 ng/ml FGF2 was added per BHM. The following day the BHMs were rinsed with RPMI medium and then differentiated as indicated in each figure, with 1.25 ml of medium per BHM. At day 13 the BHM were transferred onto mechanical stimulators as indicated. The protocol details for each figure are outlined in FIG. 8.
Contraction experiments were performed in organ baths at 37° C. and continuous bubbling with 5% CO2/95% O2 to maintain a physiological pH in Tyrode's solution containing (all in mM): 120 NaCl, 1 MgCl2, 0.2 CaCl2, 5.4 KCl, 22.6 NaHCO3, 4.2 NaH2PO4, 5.6 glucose and 0.56 ascorbate. Calcium was adjusted using a 0.2 M calcium chloride solution. All BHM were first analysed at 3 Hz with 5 ms square pulses of 200 mA in order to pace at approximately the embryonic heart rate. BHM were mechanically stretched at intervals of 125 μm until Lmax, i.e. the tissue length were maximum twitch tension/force of contraction was recorded in the presence of maximally inotropically active calcium concentrations (2 mmol/L; Frank-Starling mechanism). Subsequently, BHM were subjected to different calcium concentrations (0.2, 0.4, 0.8, 1.2, 1.6, 2.0, 2.4 mM) and the twitch force recorded. […]

Assay [2] shares this test system. Kind of assay: qPCR gene expression in BHM. The settings on record: for pathological hypertrophy marker ANP expression / β-MHC/α-MHC expression ratio: growth factor added during cardiac maturation (FGF2: 10 ng/mL, TGFb1: 1 ng/mL). On the procedure: as §1
(§2) Cells, BHMs or human heart biopsies were harvested and stored at −80° C. until RNA extraction using Trizol following manufacturer's instructions (Applied Biosystems). 1 μg of RNA was then treated with DNAse (Roche) followed by cDNA synthesis using a High Capacity cDNA Reverse Transcription Kit (Applied Biosystems). qPCR was performed using Fast SYBR Green Master Mix (Applied Biosystems) on a 384-well format AB7900 HT (Applied Biosystems). Gene expression was normalized using 2^−ΔCt or 2^−ΔΔCt using GAPDH as the housekeeping gene which we found to be consistently expressed between conditions in all of our experiments. Primer details are given in below Table 1.
On the technique in general: Quantitative PCR measures a nucleic acid by following its amplification.

The test system of another assay is HES2 hPSCs. In words: 2D cardiac differentiation of hPSC (MESP1 qPCR day 3, α-actinin flow cytometry day 16, beating activity).
From the text: For this reason a cardiac differentiation protocol was firstly required which consistently produced cardiomyocytes and fibroblasts/stromal cells. The inventors optimized their cardiac differentiation protocol (FIG. 1a) for both yield and consistency, based on a previously published serum-free 2D hPSC differentiation protocol (Hudson et al. Stem Cells Dev 21, 1513-1523 (2012)). It was reasoned that robustness and efficiency could be enhanced if WNT activity was stabilized during the mesoderm induction phase. As surrogate marker for mesoderm induction MESP1 expression was analysed by qPCR on culture day 3; this was followed by flow cytometry for α-actinin (cardiomyocyte marker) at day 16, which were found correlated very well with the amount of beating activity.
Cardiac differentiation was optimized on the HES2 line. HES2 hPSCs were plated at 5×10^4 cells/cm^2 (1×10^5 cells/cm^2 for HES3 and hIPS lines) on 1:30 Matrigel/PBS coated-plates and cultured in 1:1 PSC-medium minus FGF-2 and HFF-conditioned medium (HFF-CM—harvested from 5 day confluent irradiated HFF cultures) with 10 ng/mL FGF2. For the hIPS line 10 μM Y-27632 was added to this medium. After 1 day the cells were rinsed with RPMI medium, then differentiated as indicated in each figure with 0.5 ml of medium in each well of a 24 well plate. The protocol details for each figure are outlined in FIG. 8.
as §2
(§3) Cells were stained either live or fixed using Histofix for 10 min at room temperature or ethanol. The cells were stained in 5% FBS in PBS (membrane blocking buffer) for cell surface markers (excluding TRA-1-60) and blocking buffer for internal markers. The cells were then stained with primary antibodies in blocking buffer for 45 min followed by secondary antibodies in blocking buffer and Hoechst for 30 min at 4° C. (Table 2). A BD LSRII was used for flow cytometry analysis (BD Biosystems). Live cells populations were gated based on forward-side scatter profiles; fixed cells populations were gated based on Hoechst staining. BD FACSDiva Software (BD Bioscience) or Cyflologic v1.2.1 (Cyflo Ltd) were used for analysis.

Assay [3] concerns bioengineered heart muscle (BHM). Kind of assay: Flow cytometry of disassociated BHM (cell composition, cardiomyocyte size, cell cycle, cell number). The note with it: for cardiomyocyte size: growth factor added during cardiac maturation (FGF2: 10 ng/mL, TGFb1: 1 ng/mL). On the procedure:
as §1
For the initial BHM digestion protocol, BHMs were disassociated in 0.025 mg/ml Liberase TM (Roche), 30 mM 2,3-butanedione monoxime at 37° C. for 60 min in PBS. To preserve cell surface markers, BHM was disassociated using the same protocol as for the 2D digestion.
as §3
Background: Flow cytometry measures light scatter and fluorescence of single cells or particles in a stream.

Setting [4] is: ASC-2-P during the entire differentiation protocol, data not shown.
Setting [5] is: calcium adjusted to 1.2 mM during cardiac maturation.

Take `c1cc(-c2cnn3cc(-c4ccc(OCCN5CCCCC5)cc4)cnc23)ccn1` [dorsomorphin, reference compound]: in assay [1] (2 μmol/L dorsomorphin with each medium exchange from day 6 onwards), the “twitch tension/force of contraction, % of the control group” value is given as 47%.

“FGF2: growth factor FGF2 (Miltenyi Biotec)”: in assay [2], the “pathological hypertrophy marker ANP expression” value is “induced (variably) pathological hypertrophy marker ANP” and the β-MHC/α-MHC expression ratio entry was “did not change β-MHC/α-MHC expression ratio”. The α-actinin entry with HES2 hPSCs (5 ng/ml FGF2 during the first 3 days of differentiation, flow cytometry day 16) was “trend to increased α-actinin”. Also, in the assay on HES2 hPSCs (5 ng/ml FGF2 during the first 3 days of differentiation, qPCR day 3), the MESP1 expression result is listed as “trend to increased MESP1 expression”. Also, the “twitch tension/force of contraction” value in assay [1] is reported as “trend to decreased twitch tension”. Moreover, in assay [3], the cardiomyocyte size result is given as “increase in cardiomyocyte size”.

Regarding TGFβ1: growth factor TGFβ1 (Peprotech), in assay [2], the “pathological hypertrophy marker ANP expression” value is listed as “decreased” and the β-MHC/α-MHC expression ratio result is listed as “more mature β-MHC/α-MHC expression ratio”. Further, the “twitch tension/force of contraction” value in assay [1] was “trend to increased twitch tension”. Moreover, the “contractile function of BHM (FOC: force of contraction)” value in assay [1] (increasing TGFβ-1 during cardiac maturation phase, 0.3-10 ng/ml tested) is on record as “enhances contractile function of BHM; also recorded: enhancement of contractile function of BHM in a concentration dependent manner”. The cardiomyocyte size entry in assay [3] is reported as “increase in cardiomyocyte size”.

“L-ascorbic acid 2 phosphate sesquimagnesium salt hydrate [ASC-2-P, reference compound]”: in the assay on HES2 hPSCs (setting [4]), the “cardiac differentiation efficiency in 2D protocol” value was “without changes in cardiac differentiation efficiency” and the “number of cells in 2D protocol” value was “significantly increasing the number of cells”. The “BHM twitch tension/force of contraction” value in assay [1] (ASC-2-P supplemented during early BHM culture, days 0-13) is reported as “significantly improved”. For the same molecule, in assay [3] (ASC-2-P supplemented days 0-13), the cardiomyocyte fraction result is “trend to increased cardiomyocyte fraction” and the stromal cell fraction entry is “no change in the stromal cell fraction”.

As to `CC(C)NCC(O)c1ccc(O)c(O)c1` (stereo not shown) [isoprenaline, reference compound], in assay [1] (1 μM isoprenaline, 29-30 day vs 22 day old BHM, paced at 0.6 mM calcium), the “inotropic response with extended culture” value is “increased inotropic response”. Further, the inotropic response result in assay [1] (1 μM isoprenaline, paced conditions at 0.6 mM calcium) is “more than 40 μN”.

Consider `[Ca+2]` [calcium], for which the “calcium handling proteins by qPCR (CASQ2, PLN, ATP2A2, RYR2)” value in assay [2] (calcium adjusted to 1.2 mM, data not shown) was “no changes in calcium handling proteins”. In addition, the concentration giving a half-maximal response (EC50) was 700 µM in assay [1] (29-30 day old BHM (increased culture time), read-out: calcium EC50 (twitch tension)); 200 µM in assay [1] (22 day old BHM (previous data), read-out: calcium EC50 (twitch tension)); > 200 µM in assay [1] (characteristic of the BHM obtained by the method, read-out: calcium EC50). The elastic modulus entry in assay [1] (setting [5]) is given as “increase”. The resting tension entry in assay [1] (setting [5]) was “increase in resting tension”. Also, the “twitch tension of the BHM” value in assay [1] (calcium adjusted to 1.2 mM during cardiac maturation (RPMI 0.42 mM)) is “greatly increased the twitch tension”.

Regarding `Cc1c[nH]c(-c2cnc(NCCNc3ccc(C#N)cn3)nc2-c2ccc(Cl)cc2Cl)n1` [CHIR, CHIR99021, reference compound], in the assay with HES2 hPSCs (CHIR alone or with the differentiation factors used in FIG. 1b,c), the beating activity entry is “unable to induce any beating activity”.

B1: BMP4: growth factor BMP4 (R&D Systems) (protein, UniProt P12644 293-408, looked up)
Bone morphogenetic protein 4: SPKHHSQRARKKNKNCRRHSLYVDFSDVGWNDWIVAPPGYQAFYCHGDCPFPLADHLNSTNHAIVQTLVNSVNSSIPKACCVPTELSAISMLYLDEYDKVVLKNYQEMVVEGCGCR
B1: the “BMP4 concentration giving optimal and consistent induction of MESP1 and α-actinin expression” value in the assay on HES2 hPSCs (BMP4 concentration varied whilst CHIR is present) was found to be 5 ng/mL.

Usually EC50 stands for the concentration giving half of the maximal effect.
